Experimental data published in PubChem BioAssay (NCI).
Values joined by “and” are separate entries in the source; they are usually repeats but may differ in a detail not shown here. Equal entries are not always repeated.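 Values below derive from 48-hour exposures of cells grown in 96-well plates, with endpoints linearly interpolated between the two concentrations bracketing the appropriate inhibition level. GI50 is the concentration that inhibits growth by half. At the TGI there is no net growth.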

Experiments:
Assay in all cases: NCI tumour cell line growth inhibition, 48 h
DLD-1 colon = system: DLD-1 colon
DMS 273 small cell lung = system: DMS 273 small cell lung
DMS 114 small cell lung = system: DMS 114 small cell lung
KM20L2 colon = system: KM20L2 colon
M19-MEL melanoma = system: M19-MEL melanoma
XF 498 CNS = system: XF 498 CNS
MDA-MB-231 breast = system: MDA-MB-231 breast
BT-549 breast = system: BT-549 breast
T-47D breast = system: T-47D breast
DU-145 prostate = system: DU-145 prostate
MDA-MB-435 = system: MDA-MB-435
HS 578T breast = system: HS 578T breast
NCI/ADR-RES ovarian = system: NCI/ADR-RES ovarian

Structure (SMILES) | TGI (DLD-1 colon) [µM] | TGI (DMS 273 small cell lung) [µM] | TGI (DMS 114 small cell lung) [µM] | TGI (KM20L2 colon) [µM] | TGI (M19-MEL melanoma) [µM] | TGI (XF 498 CNS) [µM] | also measured
CC(=O)NC1C(OCc2ccccc2)OC(CO)C(O)C1OC(C)C(=O)N[C@@H](C)C(=O)N[C@H](CCC(=O)OCCNc1c2ccccc2nc2cccc([N+](=O)[O-])c12)C(N)=O (stereo partly drawn) | 0.0128 | 0.00433 | 0.00839 | 0.00247 | – | – | –
CCCCC(C)C(OC(=O)CC(CC(=O)O)C(=O)O)C(CC(C)CC(O)CCCCC(O)CC(O)C(C)N)OC(=O)CC(CC(=O)O)C(=O)O (stereo not drawn) | > 100 | – | – | > 100 | > 100 | > 100 | –
COC(=O)C1=C(c2ccc(OC)c(OC)c2)OC(c2cc(OC)c(OC)c(OC)c2)C1 (stereo not drawn) | > 100 | > 100 | > 100 | > 100 | > 100 | > 100 | –
Nc1c(O)cc(N=C2C(=O)C=CC=C2C(=O)O)c(O)c1C(=O)O | > 31.6 | > 100 | > 100 | > 100 | 37.9 | > 100 | –
CS(=O)(=O)NNS(=O)(=O)c1ccccc1 | > 100 | > 100 | > 100 | > 100 | > 100 | > 100 | –
O=C(CC1(O)C(=O)Nc2ccc(Br)cc21)c1ccc(Cl)cc1Cl (stereo not drawn) | > 100 | – | 46.8 | > 100 | 29.1 | – | –
S=c1nc(COc2ccc(Cl)cc2Cl)[nH][nH]1 | > 100 | > 100 | > 100 | > 100 | > 100 | > 100 | –
CCN(CC)c1ccc(N=Nc2ccc([N+](=O)[O-])cc2OC(=O)/C=C/c2ccccc2)c(OC(=O)/C=C/c2ccccc2)c1 | > 100 | > 100 | > 25.2 | – | > 100 | > 100 | –
CCOc1ccc2c(c1)[n+]([O-])c(-c1ccc(Br)cc1)c(N)[n+]2[O-] | > 100 | > 100 | > 100 | > 100 | > 100 | > 100 | –
O=C1NC(=O)C(=Nc2cccc3c(=O)[nH][nH]c(=O)c23)C(c2nc3ccccc3s2)C1=O (stereo not drawn) | > 100 | > 100 | > 100 | > 100 | > 100 | > 100 | –
CC1(C)O[C@@H](CCl)C[C@H](C#N)O1 | > 100 | > 100 | > 100 | > 100 | > 100 | > 100 | –
O=C(CCC(=O)Nc1ccc(Cl)c(Cl)c1)CC(=O)c1ccc(F)cc1 | > 100 | > 100 | > 100 | > 100 | > 100 | – | –
CCCCCCCCCCCCCCCCNCCCN(C)CCCN | 36 | 34.8 | 35.1 | 32.7 | 41.3 | – | –
Oc1ccc(-c2nc3ccc4[nH]ncc4c3c3c2CCCC3)c(F)c1 | – | – | – | – | – | – | GI50 (MDA-MB-231 breast): 2.79 µM; TGI (MDA-MB-231 breast): 10.5 µM; GI50 (BT-549 breast): 1.73 µM; TGI (BT-549 breast): 8.87 µM; GI50 (T-47D breast): 1.57 µM; TGI (T-47D breast): 6.61 µM; GI50 (DU-145 prostate): 2.89 µM; TGI (DU-145 prostate): 13.2 µM; GI50 (MDA-MB-435): 1.75 µM; TGI (MDA-MB-435): 10.9 µM; GI50 (HS 578T breast): 2.35 µM; TGI (HS 578T breast): 8.98 µM; GI50 (NCI/ADR-RES ovarian): 3.91 µM; TGI (NCI/ADR-RES ovarian): 53.3 µM
COC(=O)/C(=N/Nc1cccc(Cl)c1)C(C(=O)C(=O)Nc1cccc(Cl)c1C)c1nc2ccccc2nc1C (stereo not drawn) | > 100 | – | > 100 | > 100 | > 100 | – | –
Cc1ccc(NC(=O)C2C(=O)N(c3ccc(C)c(C)c3)C(=O)/C2=N\NC(N)=O)cc1C (stereo not drawn) | > 100 | – | > 100 | > 100 | > 100 | > 100 | –
N#CC1CCCCOCCOCCOCCOCCOCCCCCC1=O (stereo not drawn) | > 100 | > 100 | > 100 | > 100 | > 100 | – | –
CC1=C(/C=C/C(C)=C/C=C/C(C)=C/C=N/NC(=S)NC(=S)N/N=C/C=C(C)/C=C/C=C(C)/C=C/C2=C(C)CCCC2(C)C)C(C)(C)CCC1 | – | – | – | – | – | – | GI50 (MDA-MB-231 breast): 3.99 µM and 3.67 µM; TGI (MDA-MB-231 breast): 11 µM and 10.6 µM; GI50 (BT-549 breast): 4.85 µM and 1.69 µM; TGI (BT-549 breast): 11.5 µM and 4.77 µM; GI50 (T-47D breast): 1.49 µM and 1.09 µM; TGI (T-47D breast): 8.43 µM and 4.34 µM; GI50 (DU-145 prostate): 5.79 µM and 2.55 µM; TGI (DU-145 prostate): 12.5 µM and 8.77 µM; GI50 (MDA-MB-435): 1.17 µM and 0.84 µM; TGI (MDA-MB-435): 4.49 µM and 2.14 µM; GI50 (HS 578T breast): 3.25 µM and 1.91 µM; TGI (HS 578T breast): 18.7 µM and 9.97 µM; GI50 (NCI/ADR-RES ovarian): 1.76 µM and 1.56 µM; TGI (NCI/ADR-RES ovarian): 6.61 µM and 5.46 µM
CCCC(C)n1c(C)nc2c1C(=O)c1ccccc1C2=O (stereo not drawn) | > 100 | 30.8 | – | > 100 | 29.1 | 50.1 | –
O=[N+]([O-])c1ccc(-c2noc(-c3ccc(Cl)cc3)c2C2=NCCN2)cc1 | > 100 | – | – | > 100 | > 100 | > 100 | –
N#Cc1c(Br)n(C2OC(CO)C(O)C2O)c2ncnc(N)c12 (stereo not drawn) | – | – | – | – | – | – | GI50 (MDA-MB-231 breast): 3.82 µM; TGI (MDA-MB-231 breast): > 79.9 µM; GI50 (BT-549 breast): 1.58 µM; TGI (BT-549 breast): 15 µM; GI50 (T-47D breast): 0.498 µM; TGI (T-47D breast): 21 µM; GI50 (DU-145 prostate): 0.844 µM; TGI (DU-145 prostate): 23.9 µM; GI50 (MDA-MB-435): 1.24 µM; TGI (MDA-MB-435): > 46.2 µM; GI50 (HS 578T breast): 0.696 µM; TGI (HS 578T breast): 8.54 µM; GI50 (NCI/ADR-RES ovarian): 1.43 µM; TGI (NCI/ADR-RES ovarian): 52.5 µM
COc1ccc(S(=O)(=O)NC2=NCCN2C(=S)SN2CCn3c2nsc3=S)cc1 | – | – | – | – | – | – | GI50 (MDA-MB-231 breast): 15 µM; TGI (MDA-MB-231 breast): 36.9 µM; GI50 (BT-549 breast): 10.4 µM; TGI (BT-549 breast): 23.5 µM; GI50 (T-47D breast): 18.3 µM; TGI (T-47D breast): 49.1 µM; GI50 (DU-145 prostate): 13.5 µM; TGI (DU-145 prostate): 31.9 µM; GI50 (MDA-MB-435): 14.8 µM; TGI (MDA-MB-435): 43.9 µM; GI50 (HS 578T breast): 20.8 µM; TGI (HS 578T breast): 54.2 µM; GI50 (NCI/ADR-RES ovarian): 32.5 µM; TGI (NCI/ADR-RES ovarian): > 100 µM
